ChEMBL document CHEMBL3046689, “Volatile aldehydes are promising broad-spectrum postharvest insecticides” (J Agric Food Chem, 2000)
Activity calls are given as the source filed them. The rule behind the calls is not given here.

How the values were obtained:
[1] = test system: Brassica oleracea var. capitata; experiment: Phytotoxicity in Brassica oleracea var. capitata (cabbage) assessed as induction of olfactory damage after compound application for 1 hr through two-tier reduced pressure fumigation at 30 mmHg for 0.5 hr and then 760 mmHg for 1.5 hr at 23 +/- 1 degC; format: organism-based; conditions: in vivo
[2] = test system: Brassica oleracea var. capitata; experiment: Phytotoxicity in Brassica oleracea var. capitata (cabbage) after compound application for 1 hr through two-tier reduced pressure fumigation at 30 mmHg for 0.5 hr and then 760 mmHg for 1.5 hr at 23 +/- 1 degC; format: organism-based; conditions: in vivo
Lactuca sativa [3] = experiment: Phytotoxicity in naked Lactuca sativa (lettuce) assessed as change in visual quality after compound application through two-tier reduced pressure fumigation at 30 mmHg for 0.5 hr and then 760 mmHg for 1.5 hr at 23 +/- 1 degC after 2 hr; format: organism-based; conditions: in vivo
Citrus x paradisi [4] = experiment: Phytotoxicity in Citrus x paradisi (grape fruit) assessed as induction of visual damage after compound application for 1 hr through two-tier reduced pressure fumigation at 30 mmHg for 0.5 hr and then 760 mmHg for 1.5 hr at 23 +/- 1 degC; format: organism-based; conditions: in vivo
Persea americana [5] = experiment: Phytotoxicity in Persea americana (avocado) assessed as induction of olfactory damage after compound application for 1 hr through two-tier reduced pressure fumigation at 30 mmHg for 0.5 hr and then 760 mmHg for 1.5 hr at 23 +/- 1 degC; format: organism-based; conditions: in vivo
Vitis vinifera [6] = experiment: (§1) Phytotoxicity in Vitis vinifera assessed as induction of visual damage after compound application for 1 hr through two-tier reduced pressure fumigation at 30 mmHg for 0.5 hr and then 760 mmHg for 1.5 hr at 23 +/- 1 degC; format: organism-based; conditions: in vivo
Citrus sinensis [7] = experiment: Phytotoxicity in Citrus sinensis (orange) assessed as induction of visual damage after compound application for 1 hr through two-tier reduced pressure fumigation at 30 mmHg for 0.5 hr and then 760 mmHg for 1.5 hr at 23 +/- 1 degC; format: organism-based; conditions: in vivo
Pseudococcus affinis = experiment: Insecticidal activity against Pseudococcus affinis; format: functional, organism-based
Myzus persicae [8] = experiment: Insecticidal activity against Myzus persicae (green peach aphid) placed under third leaf of naked Iceburg lettuce heads and after compound application for 2 hr through two-tier reduced pressure fumigation at 30 mmHg for 0.5 hr and then 760 mmHg for 1.5 hr at 23 +/- 1 degC measured after 24 hr; format: functional
Phaseolus vulgaris [9] = experiment: PhytoToxicity in Phaseolus vulgaris (beans) assessed as induction of olfactory damage after compound application for 1 hr through two-tier reduced pressure fumigation at 30 mmHg for 0.5 hr and then 760 mmHg for 1.5 hr at 23 +/- 1 degC; format: organism-based; conditions: in vivo
[10] = test system: Frankliniella occidentalis; experiment: Insecticidal activity against Frankliniella occidentalis (western flower thrips); format: functional, organism-based
Lactuca sativa [11] = experiment: Phytotoxicity in naked Lactuca sativa (lettuce) after compound application for 1 hr through two-tier reduced pressure fumigation at 30 mmHg for 0.5 hr and then 760 mmHg for 1.5 hr at 23 +/- 1 degC; format: organism-based; conditions: in vivo
Pseudococcus viburni = experiment: Insecticidal activity against Pseudococcus viburni; format: functional, organism-based
Bemisia = experiment: Insecticidal activity against Bemisia sp.; format: functional, organism-based
Myzus persicae [12] = experiment: Insecticidal activity against Myzus persicae (green peach aphid) infested naked lettuce applied for 1 hr through two-tier reduced pressure fumigation at 30 mmHg for 0.5 hr and then 760 mmHg for 1.5 hr at 23 +/- 1 degC measured 24 hr; format: functional, organism-based
Citrus sinensis [13] = experiment: Phytotoxicity in Citrus sinensis (orange) assessed as induction of olfactory damage after compound application for 1 hr through two-tier reduced pressure fumigation at 30 mmHg for 0.5 hr and then 760 mmHg for 1.5 hr at 23 +/- 1 degC; format: organism-based; conditions: in vivo
Myzus persicae [14] = experiment: Insecticidal activity against Myzus persicae (green peach aphid) infested wrapped lettuce applied for 1 hr through two-tier reduced pressure fumigation at 30 mmHg for 0.5 hr and then 760 mmHg for 1.5 hr at 23 +/- 1 degC measured 24 hr; format: functional, organism-based
Oryza sativa = experiment: Phytotoxicity in Oryza sativa (rice) assessed as induction of olfactory damage after compound application for 1 hr through two-tier reduced pressure fumigation at 30 mmHg for 0.5 hr and then 760 mmHg for 1.5 hr at 23 +/- 1 degC; format: organism-based; conditions: in vivo
Brevicoryne brassicae = experiment: Insecticidal activity against Brevicoryne brassicae (cabbage aphids); format: functional, organism-based
Citrus x paradisi [15] = experiment: Phytotoxicity in Citrus x paradisi (grape fruit) assessed as induction of olfactory damage after compound application for 1 hr through two-tier reduced pressure fumigation at 30 mmHg for 0.5 hr and then 760 mmHg for 1.5 hr at 23 +/- 1 degC; format: organism-based; conditions: in vivo
Lactuca sativa [16] = experiment: Phytotoxicity in naked Lactuca sativa (lettuce) assessed as change in visual quality after compound application for 1 hr through two-tier reduced pressure fumigation at 30 mmHg for 0.5 hr and then 760 mmHg for 1.5 hr at 23 +/- 1 degC; format: organism-based; conditions: in vivo
Lactuca sativa [17] = experiment: Phytotoxicity in wrapped Lactuca sativa (lettuce) assessed as induction of olfactory damage after compound application for 1 hr through two-tier reduced pressure fumigation at 30 mmHg for 0.5 hr and then 760 mmHg for 1.5 hr at 23 +/- 1 degC; format: organism-based; conditions: in vivo
Vitis vinifera [18] = experiment: as §1; format: organism-based; conditions: in vivo; remark: listed apart in the source
[19] = test system: Brassica oleracea var. italica; experiment: Phytotoxicity in Brassica oleracea var. italica assessed as induction of visual damage after compound application for 1 hr through two-tier reduced pressure fumigation at 30 mmHg for 0.5 hr and then 760 mmHg for 1.5 hr at 23 +/- 1 degC; format: organism-based; conditions: in vivo
Malus domestica = experiment: Phytotoxicity in Malus x domestica (apple) assessed as induction of visual damage after compound application for 1 hr through two-tier reduced pressure fumigation at 30 mmHg for 0.5 hr and then 760 mmHg for 1.5 hr at 23 +/- 1 degC; format: organism-based; conditions: in vivo
Phaseolus vulgaris [20] = experiment: PhytoToxicity in Phaseolus vulgaris (beans) assessed as induction of visual damage after compound application for 1 hr through two-tier reduced pressure fumigation at 30 mmHg for 0.5 hr and then 760 mmHg for 1.5 hr at 23 +/- 1 degC; format: organism-based; conditions: in vivo, other
Myzus persicae [21] = experiment: Insecticidal activity against Myzus persicae (green peach aphid) applied through two-tier reduced pressure fumigation at 30 mmHg for 0.5 hr and then 760 mmHg for 1.5 hr at 23 +/- 1 degC; format: functional
Tetranychus urticae = experiment: Insecticidal activity against Tetranychus urticae (two-spotted spider mite); format: functional, organism-based
Vitis vinifera [22] = experiment: Phytotoxicity in Vitis vinifera assessed as induction of olfactory damage after compound application for 1 hr through two-tier reduced pressure fumigation at 30 mmHg for 0.5 hr and then 760 mmHg for 1.5 hr at 23 +/- 1 degC; format: organism-based; conditions: in vivo
Persea americana [23] = experiment: Phytotoxicity in Persea americana (avocado) assessed as induction of visual damage after compound application for 1 hr through two-tier reduced pressure fumigation at 30 mmHg for 0.5 hr and then 760 mmHg for 1.5 hr at 23 +/- 1 degC; format: organism-based; conditions: in vivo
Lactuca sativa [24] = experiment: Phytotoxicity in wrapped Lactuca sativa (lettuce) assessed as induction of visual damage after compound application for 1 hr through two-tier reduced pressure fumigation at 30 mmHg for 0.5 hr and then 760 mmHg for 1.5 hr at 23 +/- 1 degC; format: organism-based; conditions: in vivo

With `CCC=O` [PROPIONALDEHYDE] as the molecule, how does the Activity [1] read?
The Activity was “Toxic”.

And the Activity [2]?
The Activity was “Toxic”.

What about the Activity (Lactuca sativa [3]) of the same molecule?
The Activity was “Toxic”.

What about the Activity (Citrus x paradisi [4]) of the same molecule?
The Activity was “Non-toxic”.

And the Activity (Persea americana [5])?
The Activity was “Non-toxic”.

And the Activity (Vitis vinifera [6])?
Its Activity is “Non-toxic”.

And the Activity (Citrus sinensis [7])?
Its Activity is “Non-toxic”.

What about the Activity (Pseudococcus affinis) of the same molecule?
The Activity was “Active”.

And the CTP (Myzus persicae [8])?
Its CTP is 304 mg/L.hr.

And the LD90 (Myzus persicae [8])?
The LD90 was 124.5 mg/L.

And the Activity (Phaseolus vulgaris [9])?
The Activity was “Non-toxic”.

And the Activity [10]?
Its Activity is “Active”.

What about the Activity (Lactuca sativa [11]) of the same molecule?
The Activity was “Toxic”.

And the Activity (Pseudococcus viburni)?
Its Activity is “Active”.

And the Activity (Bemisia)?
The Activity was “Active”.

What about the Activity (Myzus persicae [12]) of the same molecule?
Its Activity is “Active”.

What about the Activity (Citrus sinensis [13]) of the same molecule?
The Activity was “Non-toxic”.

And the Activity (Myzus persicae [14])?
The Activity was “Active”.

And the Activity (Oryza sativa)?
Its Activity is “Non-toxic”.

What about the Activity (Brevicoryne brassicae) of the same molecule?
Its Activity is “inactive”.

What about the Activity (Citrus x paradisi [15]) of the same molecule?
The Activity was “Non-toxic”.

And the Activity (Lactuca sativa [16])?
The Activity was “Toxic”.

And the Activity (Lactuca sativa [17])?
Its Activity is “Toxic”.

And the Activity (Vitis vinifera [18])?
The Activity was “Non-toxic”.

And the Activity [19]?
Its Activity is “Non-toxic”.

What about the Activity (Malus domestica) of the same molecule?
Its Activity is “Non-toxic”.

And the Activity (Phaseolus vulgaris [20])?
The Activity was “Non-toxic”.

And the CTP (Myzus persicae [21])?
Its CTP is 4.2 mg/L.hr.

What about the Activity (Tetranychus urticae) of the same molecule?
The Activity was “inactive”.

What about the Activity (Vitis vinifera [22]) of the same molecule?
Its Activity is “Non-toxic”.

What about the Activity (Persea americana [23]) of the same molecule?
Its Activity is “Non-toxic”.

And the Activity (Lactuca sativa [24])?
Its Activity is “Non-toxic”.
